# Data reported in patent publication US20250026766A1, “Thiazolopyridyl Amide Derivatives as DNA Polymerase Theta Inhibitors” (BeiGene, Ltd., priority 2022, published 2025).
# Target: Pol Theta (1-894) (Homo sapiens (Human), UniProt O75417)
# Assay: Biochemical Pol Theta (1-894) ATPase IC50 assay (ADP-Glo, ssDNA substrate)
# Details: ADP-Glo assay with ssDNA substrate, room temperature
# Method: Baculovirus Expression of Human POL theta (1-894)
# Human POL Theta (1-894)-His-pFastBac1 baculovirus samples were generated using the Bac-to-Bac baculovirus expression system (Invitrogen) according to the manufacturer's protocol. […] Baculovirus amplification was achieved using infected SF9 cells at 1:2000 virus/cells ratios, and grown for 96 hours at 27° C. post-transfection. The expression scaled up for each protein was carried out in the flask 3 L from CORNING. 4 L of 3×10^6 cells/mL Sf9 cells (Expression System, Invitrogen) grown in SF900TM II SFM insect medium (Expression System) were infected with virus stock at 1:200 virus/cell ratios, and grown for 48 hours at 27° C. post-transfection. The infected cell culture was harvested by centrifugation at 6000 rpm for 15 min 4° C. in a SORVALL LYNX6000 centrifuge. The cell pellets were stored at −80° C.
# The human POL Theta (1-894)-His produced as described above, were purified from Sf9 baculovirus-infected insect cell paste. The cells were lysed using sonication method, and the lysates were clarified by centrifugation.
# Enzymatic reactions of Pol Theta (1-894) were performed using ADP-Glo assay with ssDNA substrate. Pol Theta (1-894) was expressed in baculovirus expression system. The inhibition activities testing for the compound disclosed herein were carried out at room temperature in assay buffer containing 40 mM Tris pH 7.5, 20 mM MgCl2, 1 mM DTT, 0.01% BSA and 0.05% Tween-20. Compounds in DMSO were dispensed into wells of a black 384 well plate (Corning 4514) using D300e digital dispenser (Tecan). The ranges of compounds final concentration were 2.62 nM˜10000 nM. 3 μL 2× enzyme solution containing 12.5 nM enzyme was added to wells. […] After 1 hour reaction, 5 μL ADP-Glo reagent (Promga V9102) was added and incubated for 40 minutes. 10 μL Kinase Detection reagent was added and incubated for 40 minutes. Luminescence was measured on a microplate reader (PHERAstar FSX, BMG labtech). The IC50 values were calculated based on inhibition of enzyme activity in the presence of increasing concentrations of compounds.
# Pol Theta (1-894), sequence (O75417 1-894): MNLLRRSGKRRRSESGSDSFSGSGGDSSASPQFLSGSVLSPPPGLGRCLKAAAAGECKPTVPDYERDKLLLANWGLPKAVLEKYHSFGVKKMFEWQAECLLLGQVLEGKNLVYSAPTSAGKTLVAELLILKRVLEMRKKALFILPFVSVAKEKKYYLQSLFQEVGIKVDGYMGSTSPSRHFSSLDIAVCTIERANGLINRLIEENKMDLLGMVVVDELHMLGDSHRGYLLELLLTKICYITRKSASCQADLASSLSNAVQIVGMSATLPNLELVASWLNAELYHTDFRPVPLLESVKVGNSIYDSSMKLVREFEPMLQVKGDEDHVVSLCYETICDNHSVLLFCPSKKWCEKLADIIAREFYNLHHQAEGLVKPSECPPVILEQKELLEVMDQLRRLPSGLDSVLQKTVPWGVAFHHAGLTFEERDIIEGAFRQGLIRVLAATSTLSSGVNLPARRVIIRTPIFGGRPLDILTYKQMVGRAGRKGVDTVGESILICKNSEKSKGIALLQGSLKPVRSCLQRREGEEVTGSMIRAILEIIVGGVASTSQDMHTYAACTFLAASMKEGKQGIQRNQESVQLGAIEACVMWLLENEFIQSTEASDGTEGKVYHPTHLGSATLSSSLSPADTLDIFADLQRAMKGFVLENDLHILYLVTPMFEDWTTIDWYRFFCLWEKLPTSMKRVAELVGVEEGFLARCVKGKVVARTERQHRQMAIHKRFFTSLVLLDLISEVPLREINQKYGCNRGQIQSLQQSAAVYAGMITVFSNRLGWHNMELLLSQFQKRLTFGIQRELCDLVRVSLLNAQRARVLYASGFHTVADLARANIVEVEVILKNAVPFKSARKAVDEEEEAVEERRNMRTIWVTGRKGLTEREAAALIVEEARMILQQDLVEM
row,IC50 [µM],Structure (SMILES)
1,0.049,"COc1ccc(C#N)cc1-c1cc(C)ncc1C(=O)Nc1nc2ccc(-c3ccc(C(=O)N4CCOCC4)cc3)nc2s1 [Example 84, 4-(5-cyano-2-methoxyphenyl)-6-methyl-N-(5-(4-(morpholine-4-carbonyl)phenyl)thiazolo[5,4-b]pyridin-2-yl)nicotinamide]"
2,0.0058,"COc1ccc([N+](=O)[O-])cc1-c1cc(C)ncc1C(=O)Nc1nc2ccc(-c3ccc(C#N)cc3)nc2s1 [Example 76, N-(5-(4-cyanophenyl)thiazolo[5,4-b]pyridin-2-yl)-4-(2-methoxy-5-nitrophenyl)-6-methylnicotinamide]"
3,0.0077,"COc1ccccc1-c1cnncc1C(=O)Nc1nc2ccc(-c3cc(C)c(NC(C)=O)c(C)c3)nc2s1 [Example 140, N-(5-(4-acetamido-3,5-dimethylphenyl)thiazolo[5,4-b]pyridin-2-yl)-5-(2-methoxyphenyl)pyridazine-4-carboxamide]"
4,0.014,"COc1cc(Oc2ccc3nc(NC(=O)c4cnncc4-c4ccccc4OC)sc3n2)ccc1Cl [Example 131, N-(5-(4-chloro-3-methoxyphenoxy)thiazolo[5,4-b]pyridin-2-yl)-5-(2-methoxyphenyl)pyridazine-4-carboxamide]"
5,0.065,"COc1ccc(C#N)cc1-c1cc(C)ncc1C(=O)Nc1nc2ccc(-c3ccc(NC(=O)CO)cc3)nc2s1 [Example 42, 4-(5-cyano-2-methoxyphenyl)-N-(5-(4-(2-hydroxyacetamido)phenyl)thiazolo[5,4-b]pyridin-2-yl)-6-methylnicotinamide]"
6,0.026,"COc1ccc(C#N)cc1-c1cc(C)ncc1C(=O)Nc1nc2ccc(-c3ccc(C(C)(C)O)cc3)nc2s1 [Example 80, 4-(5-cyano-2-methoxyphenyl)-N-(5-(4-(2-hydroxypropan-2-yl)phenyl)thiazolo[5,4-b]pyridin-2-yl)-6-methylnicotinamide]"
7,0.019,"CCNC(=O)c1ccc(-c2ccc3nc(NC(=O)c4cnncc4-c4ccccc4OC)sc3n2)cc1 [Example 108, N-(5-(4-(ethylcarbamoyl)phenyl)thiazolo[5,4-b]pyridin-2-yl)-5-(2-methoxyphenyl)pyridazine-4-carboxamide]"
8,0.0082,"COc1ccccc1-c1cnncc1C(=O)Nc1nc2ccc(-c3ccc(C#N)cn3)nc2s1 [Example 158, N-(5-(5-cyanopyridin-2-yl)thiazolo[5,4-b]pyridin-2-yl)-5-(2-methoxyphenyl)pyridazine-4-carboxamide]"
9,0.06,"COc1cc(Cl)ccc1Oc1ccc2nc(NC(=O)c3cnncc3-c3ccccc3OC)sc2n1 [Example 154, N-(5-(4-chloro-2-methoxyphenoxy)thiazolo[5,4-b]pyridin-2-yl)-5-(2-methoxyphenyl)pyridazine-4-carboxamide]"
10,0.013,"COc1ccc(C#N)cc1-c1cc(C)ncc1C(=O)Nc1nc2ccc(-c3ccc([C@H](C)C#N)cc3)nc2s1 [Example 177B, (S)-4-(5-cyano-2-methoxyphenyl)-N-(5-(4-(1-cyanoethyl)phenyl)thiazolo[5,4-b]pyridin-2-yl)-6-methylnicotinamide]"
11,0.05,"COCCOc1ccc2nc(NC(=O)c3cnc(C)cc3-c3cc(C#N)ccc3OC)sc2n1 [Example 77, 4-(5-cyano-2-methoxyphenyl)-N-(5-(2-methoxyethoxy)thiazolo[5,4-b]pyridin-2-yl)-6-methylnicotinamide]"
12,0.0095,"COc1ccccc1-c1cnncc1C(=O)Nc1nc2ccc(-c3ccc(NS(C)(=O)=O)cc3)nc2s1 [Example 48, 5-(2-methoxyphenyl)-N-(5-(4-(methylsulfonamido)phenyl)thiazolo[5,4-b]pyridin-2-yl)pyridazine-4-carboxamide]"
13,0.057,"COc1cccc(C#N)c1-c1cc(C)ncc1C(=O)Nc1nc2ccc(-c3ccc(C#N)cc3)nc2s1 [Example 153, 4-(2-cyano-6-methoxyphenyl)-N-(5-(4-cyanophenyl)thiazolo[5,4-b]pyridin-2-yl)-6-methylnicotinamide]"
14,0.191,"COc1ccccc1-c1ccncc1C(=O)Nc1nc2ccc(-c3ccc(Cl)cc3)nc2s1 [Example 2, N-(5-(4-chlorophenyl)thiazolo[5,4-b]pyridin-2-yl)-4-(2-methoxyphenyl)nicotinamide]"
15,0.05,"COc1ccccc1-c1cnncc1C(=O)Nc1nc2ccc(-c3ccc(C(=O)N4CCCC4)cc3)nc2s1 [Example 88, 5-(2-methoxyphenyl)-N-(5-(4-(pyrrolidine-1-carbonyl)phenyl)thiazolo[5,4-b]pyridin-2-yl)pyridazine-4-carboxamide]"
16,0.005,"COc1ccc(C#N)cc1-c1cc(C)ncc1C(=O)Nc1nc2ccc(-c3ccc(C#N)cn3)nc2s1 [Example 159, 4-(5-cyano-2-methoxyphenyl)-N-(5-(5-cyanopyridin-2-yl)thiazolo[5,4-b]pyridin-2-yl)-6-methylnicotinamide]"
17,0.011,"COc1ccc(C#N)cc1-c1cc(C)ncc1C(=O)Nc1nc2ccc(-c3ccc(CN4CCCC4=O)cc3C)nc2s1 [Example 174, 4-(5-cyano-2-methoxyphenyl)-6-methyl-N-(5-(2-methyl-4-((2-oxopyrrolidin-1-yl)methyl)phenyl)thiazolo[5,4-b]pyridin-2-yl)nicotinamide]"
18,0.022,"COc1ccc(C#N)cc1-c1cc(C)ncc1C(=O)Nc1nc2ccc(-c3ccc(C(=O)N4CCC4)cc3)nc2s1 [Example 145, N-(5-(4-(azetidine-1-carbonyl)phenyl)thiazolo[5,4-b]pyridin-2-yl)-4-(5-cyano-2-methoxyphenyl)-6-methylnicotinamide]"
19,0.015,"Cc1cc(-c2cc(C#N)ccc2C2CC2)c(C(=O)Nc2nc3ccc(-c4ccc(C#N)cc4)nc3s2)cn1 [Example 167, 4-(5-cyano-2-cyclopropylphenyl)-N-(5-(4-cyanophenyl)thiazolo[5,4-b]pyridin-2-yl)-6-methylnicotinamide]"
20,0.083,"COc1ccccc1-c1cnncc1C(=O)Nc1nc2ccc(-c3ccc(NC(=O)C4CC4)cc3)nc2s1 [Example 71, N-(5-(4-(cyclopropanecarboxamido)phenyl)thiazolo[5,4-b]pyridin-2-yl)-5-(2-methoxyphenyl)pyridazine-4-carboxamide]"
21,0.0056,"COc1ccc(C#N)cc1-c1cc(C)ncc1C(=O)Nc1nc2ccc(-c3ccc(CC#N)cc3)nc2s1 [Example 116, 4-(5-cyano-2-methoxyphenyl)-N-(5-(4-(cyanomethyl)phenyl)thiazolo[5,4-b]pyridin-2-yl)-6-methylnicotinamide]"
22,0.012,"CCNC(=O)c1ccc(-c2ccc3nc(NC(=O)c4cnncc4-c4ccccc4OC)sc3n2)c(C)c1 [Example 132, N-(5-(4-(ethylcarbamoyl)-2-methylphenyl)thiazolo[5,4-b]pyridin-2-yl)-5-(2-methoxyphenyl)pyridazine-4-carboxamide]"
23,0.218,"COc1ccc(C#N)cc1-c1cc(C)ncc1C(=O)Nc1nc2ccc(-c3ccc(NC(=O)C(C)C)cc3)nc2s1 [Example 50, 4-(5-cyano-2-methoxyphenyl)-N-(5-(4-isobutyramidophenyl)thiazolo[5,4-b]pyridin-2-yl)-6-methylnicotinamide]"
24,0.035,"COc1ccccc1-c1cnncc1C(=O)Nc1nc2ccc(-c3c(C)cc(Cl)cc3C)nc2s1 [Example 101, N-(5-(4-chloro-2,6-dimethylphenyl)thiazolo[5,4-b]pyridin-2-yl)-5-(2-methoxyphenyl)pyridazine-4-carboxamide]"
25,0.029,"COc1ccccc1-c1cnncc1C(=O)Nc1nc2ccc(CCc3ccc(Cl)cn3)nc2s1 [Example 162, N-(5-(2-(5-chloropyridin-2-yl)ethyl)thiazolo[5,4-b]pyridin-2-yl)-5-(2-methoxyphenyl)pyridazine-4-carboxamide]"
26,0.098,"COc1ccc(C#N)cc1-c1cc(C)ncc1C(=O)Nc1nc2ccc(-c3ccc(N4CCOCC4)cc3)nc2s1 [Example 59, 4-(5-cyano-2-methoxyphenyl)-6-methyl-N-(5-(4-morpholinophenyl)thiazolo[5,4-b]pyridin-2-yl)nicotinamide]"
27,0.0075,"COc1ccc(C#N)cc1-c1cc(C)ncc1C(=O)Nc1nc2ccc(-c3ccc(N4CCCC4=O)c(C)c3)nc2s1 [Example 78, 4-(5-cyano-2-methoxyphenyl)-6-methyl-N-(5-(3-methyl-4-(2-oxopyrrolidin-1-yl)phenyl)thiazolo[5,4-b]pyridin-2-yl)nicotinamide]"
28,0.224,"COc1ccc(C#N)cc1-c1cc(C)ncc1C(=O)Nc1nc2ccc(OCCN3CCOCC3)nc2s1 [Example 65, 4-(5-cyano-2-methoxyphenyl)-6-methyl-N-(5-(2-morpholinoethoxy)thiazolo[5,4-b]pyridin-2-yl)nicotinamide]"
29,0.029,"CCNC(=O)c1ccc2nc(NC(=O)c3cnncc3-c3ccccc3OC)sc2n1 [Example 94, N-ethyl-2-(5-(2-methoxyphenyl)pyridazine-4-carboxamido)thiazolo[5,4-b]pyridine-5-carboxamide]"
